Experimental data from patent US9527876B2, “Prodrugs of bicyclic substituted pyrimidine type PDE-5 inhibitors” (Xuanzhu Pharma Co., Ltd., priority 2013, dated 2016).
≈ marks a conversion by molar mass, not a printed value. Read-outs that look alike come from different tables or passages of the source. Values belong to the molecule of their own block, whether it stands above or below them.

How the values were obtained:
in vivo = settings: rat, iv, 2 mg/kg
Procedure: (§1) Chromatographic column: Agilent XDBC18(2.1×50 mm, 5 μm)
(§2) Rat blood collection: animal was fixed, heated at tail with water-bath 10 min before each time point, about 200 μL of blood was collected from caudal vein, and the collected blood was placed in anticoagulative tube containing heparin sodium. Blood sample was centrifuged under 8000 rpm at 4° C. for 6 min to obtain plasma sample, and the plasma must be prepared within 30 min after blood collection. The plasma was stored in −80° C. refrigerator before test.
(§3) Experimental Method • 1) Take a sample to be tested from refrigerator (−80° C.), melt in situ at room temperature, then eddy for 5 min; • 2) Precisely move 20 μL of sample into 1.5 mL centrifuge tube; • 3) Add 200 μL of internal standard solution; • 4) Eddy for 3 min, then centrifuge for 5 min (12000 rpm); • 5) Precisely move 50 μL of supernatant and add into 150 μL of water, eddy for 3 min, and load to LC-MS/MS for analysis.
(§4) Test sample (plasma sample) concentrations were output by using Analyst 1.5.1 of AB Company. […] Mean values, standard deviation and variable coefficient (those directly outputed by Analyst 1.5.1 were not calculated), were calculated by Microsoft Excel. PK parameter was calculated by using software Pharsight Phoenix 6.2.
(§5) Wherein T1/2 represents half-life period; AUCinf represents area under drug-time curve 0→∞; CL represents clearance rate; Vss represents apparent volume of distribution; Cmax represents peak concentration of the compound in plasma; Tmax represents the time at which the compound reached the peak concentration; F % represents absolute bioavailability.

PDE-5 = molecular target: T1, PDE-5 (Homo sapiens, UniProt O76074); assay: Scintillation counter (Topcount) PDE-5 enzyme assay; format: biochemical
T1 construct: PDE-5 source, human platelets; from tissue; host or cells: human platelets

[1] = rat, in vivo, iv, 1 mg/kg
Procedure: as §1, §2, §3, §4, §5

[2] = in vivo, background statement; cited from earlier work
[3] = Rat pharmacokinetics after intragastric administration (LC-MS/MS of plasma); format: in vivo, rats; settings: for F: rats, intragastric, absolute bioavailability
Text: Instrument and equipment: API4000 LC-MS/MS

[4] = Rat pharmacokinetics after intravenous injection (LC-MS/MS of plasma); settings: for concentration at 0.083 h: 1 mg/kg, Concentration of Compound 1 in rat body
Procedure: as §1, §2, §3, §4, §5

[5] = Solubility of Compound 1 in buffer solutions of different pH (visual observation); format: physicochemical; settings: for solubility at 5 min: aqueous buffer, thermodynamic from solid
Procedure: 1. Method for preparing sample of Compound 1, 6 parts of test sample were precisely weighed, each was 2 mg and was separately added to 40 μL of buffer solutions of pH 4, pH 5, pH 6, pH 7, pH 8, pH 9, respectively. Jolted (ultrasonic treatment for 5 min) and detected by visual observation.
1.02 g of potassium hydrogen phthalate was weighed, added to 0.05 mL of 0.2 mol/L hydrochloric acid solution and an appropriate amount of water for dissolution, diluted by adding water to 100 mL, mixed homogeneously to obtain the subject solution.
1.02 g of potassium hydrogen phthalate was weighed, added to 11.3 mL of 0.2 mol/L sodium hydroxide solution and an appropriate amount of water for dissolution, diluted by adding water to 100 mL, mixed homogeneously to obtain the subject solution.
0.68 g of potassium dihydric phosphate was weighed, added to 2.8 mL of 0.2 mol/L sodium hydroxide solution and an appropriate amount of water for dissolution, diluted by adding water to 100 mL, mixed homogeneously to obtain the subject solution.
0.68 g of potassium dihydric phosphate was weighed, added to 14.55 mL of 0.2 mol/L sodium hydroxide solution and an appropriate amount of water for dissolution, diluted by adding water to 100 mL, mixed homogeneously to obtain the subject solution.
0.75 g of potassium chloride and 0.62 g of boric acid were weighed, added to 3.9 mL of 0.2 mol/L sodium hydroxide solution and an appropriate amount of water for dissolution, diluted by adding water to 200 mL, mixed homogeneously to obtain the subject solution.
0.75 g of potassium chloride and 0.62 g of boric acid were weighed, added to 20.8 mL of 0.2 mol/L sodium hydroxide solution and an appropriate amount of water for dissolution, diluted by adding water to 200 mL, mixed homogeneously to obtain the subject solution.

[6] = Solubility in ultrapure water (visual observation); format: physicochemical
Procedure: Method for preparing samples of Compounds 4, 4-A, Compounds 9, and 9-B: 2 mg of test sample was taken, gradually added to ultrapure water, treated with ultrasound for 5 min each time until the sample was completely dissolved by visional observation.

[7] = Solubility of Compound Q in buffer solutions of different pH (HPLC); format: physicochemical; settings: aqueous buffer, thermodynamic from solid, 1 mg in 1 mL, read-out: Measured concentration (solubility)
Procedure: 2. Method for preparing sample of Compound Q, 4 parts of test sample were precisely weighed, each was 1 mg and was separately added to 1 mL of buffer solutions of pH 3, pH 5, pH 7, pH 9, treated with ultrasound for 5 min and filtered through 0.45 μm organic filtration membrane. The filter liquors were used as test sample solutions. 10 μL of each was injected into high performance liquid chromatograph, and peak areas were recorded.
4.88 mg of test sample was precisely weighed, placed in 10 mL volumetric flask, added to 1 mL of methanol for dissolution, then diluted with methanol to constant volume to obtain a solution containing 0.488 mg of control per 1 mL, which was used as mother liquor A. The mother liquor A was gradually diluted with methanol to obtain control solutions containing 0.0488 mg or 0.00976 mg per 1 mL.
Linear regression was performed by using control concentration (C) as abscissa, and peak area (Y) as ordinate so as to obtain a linear equation. The concentrations of test sample solutions were obtained by putting the peak areas of test sample solutions into the linear equation.
The control linear equation of Compound Q is: Y=24262C, correlation coefficient r=1.0000.
Instrument and equipment: Agilent 1200 HPLC
Chromatography column: YMC-Pack-Pro C18(150×4.6 mm, 5 μm)
Buffer solution: 0.02 mol/L ammonium dihydrogen phosphate (added 0.2% triethylamine, and regulated with phosphoric acid to pH=6.0)
Phase A: acetonitrile-buffer solution=[…], Phase B: acetonitrile-buffer solution=80:20
Mobile phase: Phase A: Phase B=65:35
Detection wavelength: 254 nm Sample size: 10 μL

[8] = in human, background statement; cited from earlier work

Plasma detection of Compound 1 at all other time points ([4]; after IV injection, time points other than 0.083 h, LC-MS/MS): could not be detected
concentration at 0.083 h ([4]; rat, plasma, iv, Mean, IV 1 mg/kg, mean of 3 rats): 165 ng/mL
concentration at 0.083 h ([4]; rat, plasma, iv, Rat 1, IV 1 mg/kg, Rat 1): 162 ng/mL
concentration at 0.083 h ([4]; rat, plasma, iv, Rat 2, IV 1 mg/kg, Rat 2): 183 ng/mL
concentration at 0.083 h ([4]; rat, plasma, iv, Rat 3, IV 1 mg/kg, Rat 3): 151 ng/mL
Time of conversion of prodrug Compound 1 into Compound Q ([4]; rats, after IV injection): ≤ 0.083 h
Plasma detection of Compound 1 at each time point ([3]; after intragastric administration (PO), LC-MS/MS): not detected
solubility at 5 min ([5]; buffer solution pH 5, 2 mg in 40 μL): ≥ 50000 µg/mL
solubility at 5 min ([5]; buffer solution pH 6, 2 mg in 40 μL): ≥ 50000 µg/mL
solubility at 5 min ([5]; buffer solution pH 7, 2 mg in 40 μL): ≥ 50000 µg/mL
solubility at 5 min ([5]; buffer solution pH 8, 2 mg in 40 μL): ≥ 50000 µg/mL
solubility at 5 min ([5]; buffer solution pH 9, 2 mg in 40 μL): ≥ 50000 µg/mL
Solubility, in words ([5]; buffer solution pH 4, compared with pH 5 to 9): decreased
Phenomenon on dissolution ([5]; buffer solution pH 4, 2 mg in 40 μL): precipitated after about 5 min
Structure (SMILES): COc1ccc(CNc2nc(N3CC4CC4C3)ncc2C(=O)N[C@H]2CC[C@H](OP(=O)([O-])[O-])CC2)cc1Cl.[Na+].[Na+] (stereo partly drawn) [Compound 1, N-trans-4-(2-(3-azabicyclo[3.1.0]hexan-3-yl)-4-(3-chloro-4-methoxybenzylamino)pyrimidine-5-carboxamido)cyclohexyl phosphate disodium salt]

Solubility in water relative to original drug Compound 4-A [6]: 2000 times
solubility at 5 min ([6]; thermodynamic from solid, ultrasound 5 min): ≥ 200000 µg/mL
Structure (SMILES): COc1ccc(CNc2nc(N3CCC4(CC4)C3)ncc2C(=O)N[C@H]2CC[C@H](OP(=O)([O-])[O-])CC2)cc1Cl.[Na+].[Na+] [Compound 4, N-trans-4-(4-((3-chloro-4-methoxybenzyl)amino)-2-(5-azaspiro[2.4]heptan-5-yl)pyrimidine-5-carboxamido)cyclohexyl phosphate disodium salt]

Vd ([4]; rat, plasma, iv, 2 mg/kg): 4.48 L/kg
clearance ([4]; rat, plasma, iv, 2 mg/kg): 13 mL/min/kg
F ([3]; dose 5 mg/kg (Table 5)): 65%
Structure (SMILES): COc1ccc(CNc2nc(N3CC4CC4C3)ncc2C(=O)N[C@H]2CC[C@H](O)CC2)cc1C (stereo partly drawn) [Compound 9-B, 2-(3-azabicyclo[3.1.0]hexan-3-yl)-N-(trans-4-hydroxycyclohexyl)-4-(4-methoxy-3-methylbenzylamino)pyrimidine-5-carboxamide]

solubility at 5 min ([7]; buffer solution pH 3): 371 µg/mL (≈ 786 µM)
solubility at 5 min ([7]; buffer solution pH 5): 0.276 µg/mL (≈ 0.585 µM)
solubility at 5 min ([7]; buffer solution pH 7): 0.124 µg/mL (≈ 0.263 µM)
solubility at 5 min ([7]; buffer solution pH 9): 0.128 µg/mL (≈ 0.271 µM)
Structure (SMILES): COc1ccc(CNc2nc(N3CC4CC4C3)ncc2C(=O)N[C@H]2CC[C@H](O)CC2)cc1Cl (stereo partly drawn) [Compound Q, 2-(3-azabicyclo[3.1.0]hexan-3-yl)-4-(3-chloro-4-methoxybenzylamino)-N-(trans-4-hydroxycyclohexyl)pyrimidine-5-carboxamide]

The remaining lines, values behind:

Structure (SMILES): COc1ccc(CN=c2[nH]c(N3CCC[C@H]3CO)ncc2C(=O)NCc2ncccn2)cc1Cl [Avanafil]
Vd (in vivo): 3.56 L/kg
clearance (in vivo): 88.5 mL/min/kg
IC50 (PDE-5): 3.1 nM
AUCinf [1]: 382 ng·h/mL
T1/2 [1]: 30 min
half-life [2]: about 1.2 h
F ([3]; dose 2 mg/kg (Table 5)): 4.5%

Structure (SMILES): CN1CC(=O)N2[C@H](c3ccc4c(c3)OCO4)c3[nH]c4ccccc4c3C[C@@H]2C1=O [Tadalafil]
half-life [8]: about 16 h
